Test results reported in patent US12161722B2, “Bifunctional heterocyclic compound having BTK degradation function via ubiquitin proteasome pathway, and use thereof” (KOREA RESEARCH INSTITUTE OF CHEMICAL TECHNOLOGY, priority 2021, dated 2024).

Biological target: T1, WT BTK protein (Homo sapiens, UniProt Q06187)
T1 construct: measured for intracellular BTK protein levels by Western blotting; endogenous in cells; host or cells: TMD-8 or RAMOS cells
Test: BTK protein degradation assay (Western blotting), WT BTK
Type: cell-based
Conditions: concentration range accounting for 50% degradation of WT BTK protein, TMD-8 or RAMOS cells, 24 hours
In short: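 TMD-8 cells (1×10^6 cells/mL) treated 24 h with compound serial dilutions, then lysed in RIPA. Equal protein loads analysed by Western blot for BTK with GAPDH/β-actin as loading controls; activity binned by concentration giving 50% WT BTK degradation.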

T1 sequence (Q06187 whole entry): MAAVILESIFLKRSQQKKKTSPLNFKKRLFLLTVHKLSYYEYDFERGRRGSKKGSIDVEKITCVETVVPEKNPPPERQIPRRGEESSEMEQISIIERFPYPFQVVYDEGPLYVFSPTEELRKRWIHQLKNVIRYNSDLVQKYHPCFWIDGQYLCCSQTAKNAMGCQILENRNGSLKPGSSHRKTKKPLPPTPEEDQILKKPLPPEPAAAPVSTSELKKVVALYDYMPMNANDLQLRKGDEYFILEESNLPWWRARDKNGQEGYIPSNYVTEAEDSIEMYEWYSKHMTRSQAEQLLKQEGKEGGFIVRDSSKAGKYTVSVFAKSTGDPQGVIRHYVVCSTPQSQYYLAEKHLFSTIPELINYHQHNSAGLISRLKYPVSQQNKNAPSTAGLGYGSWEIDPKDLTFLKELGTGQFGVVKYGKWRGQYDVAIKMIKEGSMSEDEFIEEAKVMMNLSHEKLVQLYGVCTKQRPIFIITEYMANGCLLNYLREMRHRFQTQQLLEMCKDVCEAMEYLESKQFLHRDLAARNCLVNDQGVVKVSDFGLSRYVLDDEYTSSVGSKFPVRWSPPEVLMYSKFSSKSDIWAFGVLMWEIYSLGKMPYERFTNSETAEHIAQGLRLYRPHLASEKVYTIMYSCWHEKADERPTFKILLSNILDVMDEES

Structure (SMILES) | DC50 [nM]
Cc1cccc(C)c1Nc1nn(C)c2nc(Nc3ccc(N4CCN(c5cc6c(cc5F)C(=O)N(C5CCC(=O)NC5=O)C6=O)CC4)cc3)ncc12 (stereo not shown) [Compound 239, 5-(4-(4-((3-((2,6-Dimethylphenyl)amino)-1-methyl-1H-pyrazolo[3,4-d]pyrimidin-6-yl)amino)phenyl)piperazin-1-yl)-2-(2,6-dioxopiperidin-3-yl)-6-fluoroisoindoline-1,3-dione] | 10 to 1000
Cc1cccc(C)c1Nc1nn(C)c2nc(Nc3ccc4c(c3)CN(CC(=O)N3CCC(Oc5ccc6c(c5)CN(C5CCC(=O)NC5=O)C6=O)CC3)CC4)ncc12 (stereo not shown) [Compound 106, 3-(5-((1-(2-(7-((3-((2,6-dimethylphenyl)amino)-1-methyl-1H-pyrazolo[3,4-d]pyrimidin-6-yl)amino)-3,4-dihydroisoquinolin-2 (1H)-yl)acetyl)piperidin-4-yl)oxy)-1-oxoisoindolin-2-yl)piperidin-2,6-one] | 10 to 1000
Cc1cccc(C)c1Nc1nn(C)c2nc(Nc3ccc(N4CCN(C[C@@H]5CCCN(c6ccc7c(c6)C(=O)N(C6CCC(=O)NC6=O)C7=O)C5)CC4)nc3)ncc12 (stereo partly drawn) [Compound 161, 5-((S)-3-((4-(5-((3-((2,6-Dimethylphenyl)amino)-1-methyl-1H-pyrazolo[3,4-d]pyrimidin-6-yl)amino)pyridin-2-yl)piperazin-1-yl)methyl)piperidin-1-yl)-2-(2,6-dioxopiperidin-3-yl)isoindoline-1,3-dione] | 0.1 to 10
Cc1cccc(C)c1Nc1nn(C)c2nc(Nc3ccc4c(c3)CN(C(=O)/C(C#N)=C/C3CCN(C(=O)CNc5ccc6c(c5)C(=O)N(C5CCC(=O)NC5=O)C6=O)CC3)CC4)ncc12 (stereo not shown) [Compound 260, (E)-2-(7-((3-((2,6-Dimethylphenyl)amino)-1-methyl-1H-pyrazolo[3,4-d]pyrimidin-6-yl)amino)-1,2,3,4-tetrahydroisoquinoline-2-carbonyl)-3-(1-((2-(2,6-dioxopiperidin-3-yl)-1,3-dioxoisoindolin-5-yl)glycyl)piperidin-4-yl)acrylonitrile] | 0.1 to 10
Cc1cc(F)cc(C)c1Nc1nn(C)c2nc(Nc3ccc4c(c3)CN(CC3CCN(c5ccc6c(c5)C(=O)N(C5CCC(=O)NC5=O)C6=O)CC3)CC4)ncc12 (stereo not shown) [Compound 221, 2-(2,6-dioxopiperidin-3-yl)-5-(4-((7-((3-((4-fluoro-2,6-dimethylphenyl)amino)-1-methyl-1H-pyrazolo[3,4-d]pyrimidin-6-yl)amino)-3,4-dihydroisoquinolin-2 (1H)-yl)methyl)piperidin-1-yl)isoindoline-1,3-dione] | 0.1 to 10
Cc1cccc(C)c1Nc1nn(C)c2nc(Nc3ccc4c(c3)CN(C(=O)CN3CCC(Oc5ccc6c(c5)C(=O)N(C5CCC(=O)NC5=O)C6)CC3)CC4)ncc12 (stereo not shown) [Compound 117, 3-(6-((1-(2-(7-((3-((2,6-dimethylphenyl)amino)-1-methyl-TH-pyrazolo[3,4-d]pyrimidin-6-yl)amino)-3,4-dihydroisoquinolin-2 (1H)-yl)-2-oxoethyl)piperidin-4-yl)oxy)-1-oxoisoindolin-2-yl)piperidin-2,6-one] | 1000 to 10000
Cc1cccc(C)c1Nc1nn(C)c2nc(Nc3ccc4c(c3)CN(C(=O)CCC3CCN(c5ccc6c(c5)C(=O)N(C5CCC(=O)NC5=O)C6=O)CC3)CC4)ncc12 (stereo not shown) [Compound 126, 5-(4-(3-(7-((3-((2,6-Dimethylphenyl)amino)-1-methyl-1H-pyrazolo[3,4-d]pyrimidin-6-yl)amino)-3,4-dihydroisoquinolin-2 (1H)-yl)-3-oxopropyl)piperidin-1-yl)-2-(2,6-dioxopiperidin-3-yl)isoindoline-1,3-dione] | 0.1 to 10

Now from value to molecule:

DC50 [nM] | Structure (SMILES)
0.1 to 10 | Cc1cccc(C)c1Nc1nn(C)c2nc(Nc3ccc4c(c3)CN(C3CCN(C[C@H]5CCCN(c6ccc7c(c6)C(=O)N(C6CCC(=O)NC6=O)C7=O)C5)CC3)CC4)ncc12 (stereo partly drawn) [Compound 140, 5-((R)-3-((4-(7-((3-((2,6-dimethylphenyl)amino)-1-methyl-1H-pyrazolo[3,4-d]pyrimidin-6-yl)amino)-3,4-dihydroisoquinolin-2 (1H)-yl)piperidin-1-yl)methyl)piperidin-1-yl)-2-(2,6-dioxopiperidin-3-yl)isoindoline-1,3-dione]
0.1 to 10 | Cn1nc(Nc2c(Cl)cccc2I)c2cnc(Nc3ccc4c(c3)CN(CC3CCN(c5ccc6c(c5)C(=O)N(C5CCC(=O)NC5=O)C6=O)CC3)CC4)nc21 (stereo not shown) [Compound 219, 5-(4-((7-((3-((2-chloro-6-iodophenyl)amino)-1-methyl-1H-pyrazolo[3,4-d]pyrimidin-6-yl)amino)-3,4-dihydroisoquinolin-2 (1H)-yl)methyl)piperidin-1-yl)-2-(2,6-dioxopiperidin-3-yl)isoindoline-1,3-dione]
0.1 to 10 | Cc1cccc(C)c1Nc1nn(C)c2nc(Nc3ccc4c(c3)CN(CC3CN(c5ccc6c(c5)C(=O)N(C5CCC(=O)NC5=O)C6=O)C3)CC4)ncc12 (stereo not shown) [Compound 47, 5-(3-((7-((3-((2,6-Dimethylphenyl)amino)-1-methyl-1H-pyrazolo[3,4-d]pyrimidin-6-yl)amino)-3,4-dihydroisoquinolin-2 (1H)-yl)methyl)azetidin-1-yl)-2-(2,6-dioxopiperidin-3-yl)isoindoline-1,3-dione]
0.1 to 10 | Cc1cccc(C)c1Nc1nn(C)c2nc(Nc3ccc(C4CCN(CC5CCN(c6ccc7c(c6)C(=O)N(C6CCC(=O)NC6=O)C7=O)CC5)CC4)nc3)ncc12 (stereo not shown) [Compound 164, 5-(4-((4-(5-((3-((2,6-Dimethylphenyl)amino)-1-methyl-1H-pyrazolo[3,4-d]pyrimidin-6-yl)amino)pyridin-2-yl)piperidin-1-yl)methyl)piperidin-1-yl)-2-(2,6-dioxopiperidin-3-yl)isoindoline-1,3-dione]
0.1 to 10 | Cc1cccc(C)c1Nc1nn(C)c2nc(Nc3ccc(C4CCN(CC5CCN(c6ccc7c(c6)C(=O)N(C6CCC(=O)NC6=O)C7=O)CC5)CC4)cc3)ncc12 (stereo not shown) [Compound 165, 5-(4-((4-(4-((3-((2,6-Dimethylphenyl)amino)-1-methyl-1H-pyrazolo[3,4-d]pyrimidin-6-yl)amino)phenyl)piperidin-1-yl)methyl)piperidin-1-yl)-2-(2,6-dioxopiperidin-3-yl)isoindoline-1,3-dione]
0.1 to 10 | Cc1cccc(C)c1Nc1nn(C)c2nc(Nc3ccc4c(c3)CN(C(=O)/C(C#N)=C/C3CCN(C(=O)COc5ccc6c(c5)C(=O)N(C5CCC(=O)NC5=O)C6=O)CC3)CC4)ncc12 (stereo not shown) [Compound 241, (E)-2-(7-((3-((2,6-dimethylphenyl)amino)-1-methyl-1H-pyrazolo[3,4-d]pyrimidin-6-yl)amino)-1,2,3,4-tetrahydroisoquinoline-2-carbonyl)-3-(1-(2-((2-(2,6-dioxopiperidin-3-yl)-1,3-dioxoisoindolin-5-yl)oxy)acetyl)piperidin-4-yl)acrylonitrile]
